The text below walks through data of patent publication US7229990B2, “Bicyclic heteroaromatic compounds” (N.V. Organon, priority 2000, dated 2007).

The target of the first test is T1, human LH receptor (Homo sapiens, UniProt P22888).
T1 construct: expressed in transfected cells; host or cells: Chinese Hamster Ovary (CHO) cells, stably transfected; cotransfected with a CRE-luciferase reporter
T1 sequence (P22888 27-699): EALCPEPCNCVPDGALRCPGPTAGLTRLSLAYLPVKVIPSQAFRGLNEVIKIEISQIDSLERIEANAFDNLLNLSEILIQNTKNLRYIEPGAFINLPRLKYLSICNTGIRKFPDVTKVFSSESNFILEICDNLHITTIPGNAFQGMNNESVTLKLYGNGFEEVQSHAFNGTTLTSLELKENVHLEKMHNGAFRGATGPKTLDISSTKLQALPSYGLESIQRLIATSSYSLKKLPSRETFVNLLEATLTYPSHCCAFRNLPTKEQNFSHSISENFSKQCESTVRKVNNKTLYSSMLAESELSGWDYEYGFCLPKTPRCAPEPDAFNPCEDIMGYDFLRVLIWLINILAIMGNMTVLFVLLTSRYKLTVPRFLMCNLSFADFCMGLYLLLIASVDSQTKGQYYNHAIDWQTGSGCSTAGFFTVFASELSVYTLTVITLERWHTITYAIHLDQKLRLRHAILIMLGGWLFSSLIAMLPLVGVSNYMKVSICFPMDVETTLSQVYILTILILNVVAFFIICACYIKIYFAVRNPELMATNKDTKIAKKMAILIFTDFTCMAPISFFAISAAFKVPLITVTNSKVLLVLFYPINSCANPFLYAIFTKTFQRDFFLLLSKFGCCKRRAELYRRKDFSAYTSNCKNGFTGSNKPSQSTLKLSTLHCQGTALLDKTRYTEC
Description: CHO-LH in vitro bioactivity (CRE-luciferase reporter, LH agonistic activity). The test is classed as cell-based.
Details: not given
As for the experimental part: LH agonistic activity of compounds was tested in Chinese Hamster Ovary (CHO) cells stably transfected with the human LH receptor and cotransfected with a cAMP responsive, element (CRE)/promotor directing the expression of a firefly luciferase reporter gene. Binding of ligand to the Gs-coupled LH receptor will result in an increase of cAMP, which in turn will induce an increased transactivation of the luciferase reporter construct. The luciferase signal was quantified using a luminescence counter. For test compounds, EC50 values (concentration of test compound causing half-maximal (50%) stimulation) were calculated. For that purpose the software program GraphPad PRISM, version 3.0 (GraphPad software Inc., San Diego) was used.
In general terms: In a reporter assay the amount or activity of a reporter protein is the signal.
In the case of `CCN(CC)C(=O)Oc1cccc(-c2nc(SC)nc3sc(C(=O)NC(C)(C)C)c(N)c23)c1` [Example 7], the EC50 is less than 10 nM.

The same test, now with this note: CHO cells stably transfected with the human LH receptor and cotransfected with CRE/promotor firefly luciferase reporter; luciferase signal; read-out: EC50 value (concentration of test compound causing half-maximal (50%) stimulation).
Take `CCOC(=O)Nc1cccc(-c2nc(SC)nc3sc(C(=O)NC(C)(C)C)c(N)c23)c1` [Example 18, tert-Butyl 5-amino-2-methylthio-4-(3-(ethoxycarbonylamino)-phenyl)-thieno[2,3-d]pyrimidine-6-carboxamide]: the EC50 is less than 10 nM.
Same read-out and setting: the result for `C=CCOC(=O)Nc1cccc(-c2nc(SC)nc3sc(C(=O)NC(C)(C)C)c(N)c23)c1` [Example 16, tert-Butyl 5-amino-2-methylthio-4-(3-(allyloxycarbonylamino)-phenyl)-thieno[2,3-d]pyrimidine-6-carboxamide] reads less than 10 nM.
On the same count and under the same terms, under `CSc1nc(-c2cccc(NC(=O)N3CC=CCC3)c2)c2c(N)c(C(=O)NC(C)(C)C)sc2n1` [Example 23, tert-Butyl 5-amino-2-methylthio-4-(3-(1,2,3,6-tetrahydropyridinocarbonylamino)-phenyl)-thieno[2,3-d]pyrimidine-6-carboxamide] stands less than 10 nM.
With `CN(C)C(=O)Nc1cccc(-c2nc(-c3ccccc3)nc3sc(C(=O)NC(C)(C)C)c(N)c23)c1` [Example 32, tert-Butyl 5-amino-2-phenyl-4-(3-((N,N-dimethylamino)-carbonylamino)-phenyl)-thieno[2,3-d]pyrimidine-6-carboxamide], the EC50 was less than 10 nM.
On to `COC(=O)Nc1cccc(-c2nc(SC)nc3sc(C(=O)NC(C)(C)C)c(N)c23)c1` [Example 15, tert-Butyl 5-amino-2-methylthio-4-(3-(methoxycarbonylamino)-phenyl)-thieno[2,3-]pyrimidine-6-carboxamide], for which the EC50 is less than 10 nM.
Consider `CSc1nc(-c2cccc(NC(=O)N3CCOCC3)c2)c2c(N)c(C(=O)NC(C)(C)C)sc2n1` [Example 21], for which the EC50 is less than 10 nM.
